Reference: patent publication US8512943B2, “Accessing the toxic potential of nanomaterials” (The Regents of the University of California, priority 2005, dated 2013)

Legend:
[1] = system: RAW 264.7 cells; experiment: DCF fluorescence (H2O2 production), flow cytometry; format: cell-based, mouse
Experimental: (§2) RAW 264.7 cells were cultured in a 5% CO2 in Dulbecco's Modified Eagle Medium (DMEM) containing 10% FCS, 5000 U/ml penicillin, 500 μg/ml streptomycin, and 2 mM L-glutamine (complete medium). For exposure to NP, aliquots of 3×10^5 cells were cultured in 24-well plates in 0.5 ml of medium at 37° C. for the indicated time periods. All the NP solutions were prepared fresh from stock solutions (10 mg/ml) and the solutions were sonicated for 10 sec before addition to cell cultures.
Cells were stained with the fluorescent dyes diluted in DMEM. […] DiOC6 and Fluo-3 fluorescence were analyzed in the FL-1 channel, while PI, Rhod-2 and MitoSOX red fluorescence were analyzed in FL-2. HE fluorescence was analyzed using FL-3 channels. Monobromobimane fluorescence was excited by the UV laser tuned to 325 nm, and emission was measured at 510 nm (FL-4 channel) in the LSR flow cytometer. […]
The fold-increase in mean fluorescence intensity (MFI) of DCF was expressed as the ratio of particle-treated vs. control cells (FIG. 8A).

[2] = system: HO-1; experiment: HO-1 expression by immunoblotting; format: cell-based, mouse
Experimental: GAPDH immunoblotting was used to ascertain equal protein loading (lower panels).
For Western blotting, 100 μg of total protein was separated by 10% SDS-PAGE and transferred to a PVDF membrane. After blocking, the membranes were incubated with primary antibodies against HO-1, phospho-JNK or JNK. The membranes were overlayed with secondary antibody before the addition of the HRP-conjugated avidin-biotin complex. The proteins were detected using ECL reagent according to the manufacturer's instructions. Protein abundance was quantified by densitometric scanning using a laser Personal Densitometer SI and Image Quant software (Amersham Biosciences).

[3] = system: RAW 264.7 cells; experiment: Propidium iodide (PI) uptake, cellular toxicity; format: cell-based
Experimental: (§1) Cells were stained with the fluorescent dyes diluted in DMEM. The following dye combinations were added for 15-30 min at 37° C. in the dark: (i) 47.5 μg/ml propidium iodide (PI) in 200 μl DMEM (assessment of cell death); (ii) 20 nM DiOC6 (assessment of Δψm); (iii) 2 μM MitoSOX™ red (superoxide generation) or 2 μM hydroethidine (HE, superoxide production); (iv) 2.5 μM 2,7 dichlorofluorescein (DCF, mostly assesses H2O2 production); (v) 5 μM Fluo-3 (assess cytoplasmic free calcium); (vi) 4 μM Rhod-2 (mitochondrial free calcium); (vii) 40 μM monobromobimane (MBB, assess intracellular thiol levels). Flow cytometry was performed using a FACScan (Becton Dickinson, Mountain View, Calif.) equipped with a single 488 nm argon laser. DiOC6 and Fluo-3 fluorescence were analyzed in the FL-1 channel, while PI, Rhod-2 and MitoSOX red fluorescence were analyzed in FL-2. HE fluorescence was analyzed using FL-3 channels. Monobromobimane fluorescence was excited by the UV laser tuned to 325 nm, and emission was measured at 510 nm (FL-4 channel) in the LSR flow cytometer. Forward and side scatter were used to gate out cellular fragments.
Large-scale PTP opening leads to mitochondrial depolarization, O2.^− production and the release of pro-apoptotic factors. Cellular toxicity was assessed by PI staining (FIG. 18C).

[4] = system: TNF-α; experiment: TNF-α production by ELISA; format: cell-based, mouse
Excerpt: Triplicate aliquots of RAW 264.7 cells were exposed to NP for 6 hr. The culture media were collected, centrifuged to remove all debris and the resultant supernatant assayed by ELISA for TNF-α and Western blotting for Jun kinase.

[5] = system: RAW 264.7 cells; experiment: MitoSOX Red fluorescence (mitochondrial superoxide production), flow cytometry; format: cell-based, mouse
Experimental: as §2

[6] = system: RAW 264.7 cells
Experimental: Electron microscopy was performed as previously described (Yang A H, et al., In Vitro Cell Dev Biol 23:34-46, 1987). Thin sections were cut with a Reichert-Jung ultracut and ultramicrotome (Leica, Stuttgart, Germany). Copper grids were stained with lead citrate and uranyl acetate and photographed in a Hitachi electron microscope (Hitachi Instrument Inc., Tokyo, Japan).

[7] = system: RAW 264.7 cells; experiment: DiOC6 fluorescence, mitochondrial membrane potential (Δψm); format: cell-based
Experimental: as §1
Toxic oxidative stress can perturb mitochondrial function in a number of ways, including disruption of electron flow in the inner membrane, dissipation of the mitochondrial membrane potential (Δψm), mitochondrial Ca^2+ uptake, and large-scale opening of the PTP. […]

CC(=O)N[C@@H](CS)C(=O)O [NAC, N-acetylcysteine]
effect on ROS production by NH2-PS particles [1]: effectively disrupted | effect on UFP-induced H2O2 production ([1]; pretreatment, 4 and 16 hrs): significantly suppressed | effect on induction of HO-1 expression by NP [2]: suppressed | effect on cytotoxicity of UFP and NH2-PS [3]: could interfere | effect on UFP-induced TNF-α production ([4]; pre-treatment 2 hr, then UFP 6 hr): capable of interfering | effect on NH2-PS ROS response ([5]; 8 hrs): failed to suppress | effect on NH2-PS ROS response ([5]; 16 hrs): did interfere | effect on UFP-induced O2.− generation ([5]; all time points): could interfere

C[S+]([O-])CCCCN=C=S (stereo not drawn) [SFN, Sulforaphane]
HO-1 expression after prior treatment ([2]; without NP): resulted in HO-1 expression | effect of prior treatment on TNF-α production ([4]; pre-treatment 4 hr, then UFP 6 hr): interference

Carbon Black
cellular uptake, subcellular localization and mitochondrial damage [6]: taken up in phagosomes without mitochondrial damage

Polymyxin B [PMB]
effect on LPS-induced TNF-α response ([4]; 6 hr): significant suppression | effect on UFP TNF-α response ([4]; 6 hr): small effect

titanium dioxide [TiO2]
DiOC6 fluorescence (Δψm) [7]: failed to exert an influence | cellular uptake, subcellular localization and mitochondrial damage [6]: taken up into loose-fitting phagosomes without noticeable mitochondrial damage
